Reference: US20240262814A1, “MODULATORS OF TREX1” (Constellation Pharmaceuticals, Inc., priority 2021, published 2024)
pIC50: −log10 of the molar value.

What was measured:
mouse TREX1 = target: T1, mouse TREX1 (Mus musculus, UniProt Q91XB0); experiment: mTREX1 Biochemical Assay (fluorescence, dsDNA substrate degradation); conditions: full length mouse TREX1, 4 h pre-incubation, 18 h reaction at 25° C.
T1 construct: N-terminally His-Tev tagged full length mouse TREX1; made in house; host or cells: E. coli
T1 sequence (Q91XB0 1-314): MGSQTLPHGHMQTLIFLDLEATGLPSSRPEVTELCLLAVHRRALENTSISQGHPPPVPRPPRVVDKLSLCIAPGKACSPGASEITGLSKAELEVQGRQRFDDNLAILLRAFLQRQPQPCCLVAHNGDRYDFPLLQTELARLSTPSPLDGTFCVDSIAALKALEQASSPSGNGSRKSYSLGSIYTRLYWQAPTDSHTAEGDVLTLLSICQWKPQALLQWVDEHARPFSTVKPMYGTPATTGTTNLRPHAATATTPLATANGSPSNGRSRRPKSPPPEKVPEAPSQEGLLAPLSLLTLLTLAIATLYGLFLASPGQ
In short: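 Full-length His-Tev mouse TREX1 (E. coli) was preincubated with compound 4 h at 25 °C, then run 18 h at 25 °C. Finals were 6 pM enzyme, 60 nM TEX615/quencher dsDNA, 1% DMSO, pH 7.4 Tris with 5 mM MgCl2. After EDTA quench, fluorescence was read at 615 nm; IC50 by four-parameter fit against EDTA and no-inhibitor controls.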

human TREX2 = target: T2, human TREX2 (Homo sapiens, UniProt Q9BQ50); experiment: hTREX2 Biochemical Assay (selectivity hTREX1 vs hTREX2); conditions: biochemical selectivity for hTREX1 vs hTREX2
T2 construct: human TREX2 (residues M44-A279, expressed in E. coli); made in house; host or cells: E. coli
T2 sequence (Q9BQ50 44-279 isoform Q9BQ50-1): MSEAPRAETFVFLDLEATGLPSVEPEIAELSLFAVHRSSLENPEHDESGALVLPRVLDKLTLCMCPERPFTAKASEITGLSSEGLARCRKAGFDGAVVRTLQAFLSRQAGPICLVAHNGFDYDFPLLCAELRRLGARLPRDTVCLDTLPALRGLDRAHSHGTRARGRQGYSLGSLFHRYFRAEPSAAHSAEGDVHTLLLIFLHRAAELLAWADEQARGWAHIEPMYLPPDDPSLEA
In short: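 His-Tev-tagged human TREX2 (M44-A279, E. coli-expressed) preincubated with compound (10-point dose-response) for 4 h at 25 °C in Tris pH 7.4 buffer with 5 mM MgCl2. Reaction then run with 60 nM TEX615/quencher dsDNA and 50 pM enzyme (1% DMSO) for 18 h at 25 °C and EDTA-quenched. Fluorescence read at 615 nm (ex 570 nm); IC50 by four-parameter fit against pre-quenched and no-inhibitor controls.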

In the case of CC(c1nc(C(=O)Nc2cnoc2)c(O)c(=O)n1C)C(c1ccccc1)c1ccccc1 (single isomer, unassigned) [Example 1 Isomer 1, 2-(1,1-diphenylpropan-2-yl)-5-hydroxy-N-(isoxazol-4-yl)-1-methyl-6-oxo-1,6-dihydro pyrimidine-4-carboxamide], the pIC50 (mouse TREX1) was < 8.00 and the “hTREX1 vs hTREX2 selectivity” value (human TREX2) was “A (A = <25 fold selective for hTREX1)”.

For CC(c1nc(C(=O)Nc2cnoc2)c(O)c(=O)n1C)C(c1ccccc1)c1ccccc1 (single isomer, unassigned) [Example 1 Isomer 2, 2-(1,1-diphenylpropan-2-yl)-5-hydroxy-N-(isoxazol-4-yl)-1-methyl-6-oxo-1,6-dihydro pyrimidine-4-carboxamide], the pIC50 (mouse TREX1) was < 8.00 and the “hTREX1 vs hTREX2 selectivity” value (human TREX2) was “A (A = <25 fold selective for hTREX1)”.

C[C@H](c1nc(C(=O)Nc2cnoc2)c(O)c(=O)n1C)[C@H](c1ccccc1)c1ccccc1Cl (single isomer, unassigned) [Example 2 Isomer 3, 2-(1-(2-chlorophenyl)-1-phenylpropan-2-yl)-5-hydroxy-N-(isoxazol-4-yl)-1-methyl-6-oxo-1,6-dihydropyrimidine-4-carboxamide] was tested, and the pIC50 (mouse TREX1) was 8.00 to 9.00 and the “hTREX1 vs hTREX2 selectivity” value (human TREX2) was “B (B = 25 to 50 fold selective for hTREX1)”.

With CC(c1nc(C(=O)Nc2cnoc2)c(O)c(=O)n1C)C(c1ccccc1)c1ccccc1C#N (single isomer, unassigned) [Example 3 Isomer 4] the pIC50 (mouse TREX1) was 8.00 to 9.00 and the “hTREX1 vs hTREX2 selectivity” value (human TREX2) was “B (B = 25 to 50 fold selective for hTREX1)”.

With CC(c1nc(C(=O)Nc2cnoc2)c(O)c(=O)n1C)C(c1ccccc1C#N)c1ccccc1C#N (single isomer, unassigned) [Example 4 Isomer 2] the pIC50 (mouse TREX1) was > 9.00 and the “hTREX1 vs hTREX2 selectivity” value (human TREX2) was “C (C = >50 fold selective for hTREX1)”.

With CC(c1nc(C(=O)Nc2cnoc2)c(O)c(=O)n1C)C(c1ccccc1)c1cc(F)ccc1C#N (single isomer, unassigned) [Example 6 Isomer 4] the pIC50 (mouse TREX1) was 8.00 to 9.00 and the “hTREX1 vs hTREX2 selectivity” value (human TREX2) was “B (B = 25 to 50 fold selective for hTREX1)”.

For CC(c1nc(C(=O)Nc2cnoc2)c(O)c(=O)n1C)C(c1ccccc1)c1cc(Cl)ccc1C#N (single isomer, unassigned) [Example 8 Isomer 2], the pIC50 (mouse TREX1) was 8.00 to 9.00 and the “hTREX1 vs hTREX2 selectivity” value (human TREX2) was “C (C = >50 fold selective for hTREX1)”.

In the case of CC(c1nc(C(=O)Nc2cnoc2)c(O)c(=O)n1C)C(c1ccccc1)c1ccc(Cl)cc1C#N (single isomer, unassigned) [Example 9 Isomer 4], the pIC50 (mouse TREX1) was > 9.00 and the “hTREX1 vs hTREX2 selectivity” value (human TREX2) was “B (B = 25 to 50 fold selective for hTREX1)”.

In the case of CC(c1nc(C(=O)Nc2cnoc2)c(O)c(=O)n1C)C(c1ccccc1Cl)c1ccccc1C#N (single isomer, unassigned) [Example 10 Isomer 1], the pIC50 (mouse TREX1) was > 9.00 and the “hTREX1 vs hTREX2 selectivity” value (human TREX2) was “C (C = >50 fold selective for hTREX1)”.

In the case of CC(c1nc(C(=O)Nc2cnoc2)c(O)c(=O)n1C)C(c1cc(F)cc(F)c1)c1ccccc1C#N (single isomer, unassigned) [Example 11 Isomer 3], the pIC50 (mouse TREX1) was > 9.00 and the “hTREX1 vs hTREX2 selectivity” value (human TREX2) was “B (B = 25 to 50 fold selective for hTREX1)”.

C[C@H](c1nc(C(=O)Nc2cnoc2)c(O)c(=O)n1C)[C@H](c1ccccc1)c1ccccc1C(F)(F)F (single isomer, unassigned) [Example 14 Isomer 2, 5-Hydroxy-N-(isoxazol-4-yl)-1-methyl-6-oxo-2-(1-phenyl-1-(2-(trifluoromethyl)phenyl)propan-2-yl)-1,6-dihydropyrimidine-4-carboxamide] was tested, and the pIC50 (mouse TREX1) was < 8.00 and the “hTREX1 vs hTREX2 selectivity” value (human TREX2) was “C (C = >50 fold selective for hTREX1)”.

With C[C@H](c1nc(C(=O)Nc2cnoc2)c(O)c(=O)n1C)C(c1ccccc1Cl)c1ccccc1Cl (single isomer, unassigned) [Example 15 Isomer 1, 2-(1,1-bis(2-chlorophenyl)propan-2-yl)-5-hydroxy-N-(isooxazol-4-yl)-1-methyl-6-oxo-1,6-dihydropyrimidine-4-carboxamide] the pIC50 (mouse TREX1) was > 9.00 and the “hTREX1 vs hTREX2 selectivity” value (human TREX2) was “C (C = >50 fold selective for hTREX1)”.

For CC(c1nc(C(=O)Nc2cnoc2)c(O)c(=O)n1C)C(c1ccccc1)c1cc(C(=O)N(C)C)ccc1C#N (single isomer, unassigned) [Example 17 Isomer 3], the pIC50 (mouse TREX1) was 8.00 to 9.00 and the “hTREX1 vs hTREX2 selectivity” value (human TREX2) was “B (B = 25 to 50 fold selective for hTREX1)”.

In the case of Cn1c([C@H](C(c2ccccc2)c2ccccc2)C(F)(F)F)nc(C(=O)Nc2cnoc2)c(O)c1=O (single isomer, unassigned) [Example 20 Isomer 1, 5-Hydroxy-N-(isoxazol-4-yl)-1-methyl-6-oxo-2-(1,1,1-trifluoro-3,3-diphenylpropan-2-yl)-1,6-dihydropyrimidine-4-carboxamide], the pIC50 (mouse TREX1) was < 8.00 and the “hTREX1 vs hTREX2 selectivity” value (human TREX2) was “A (A = <25 fold selective for hTREX1)”.

For Cn1c([C@@H](C(c2ccccc2C#N)c2ccccc2C#N)C(F)(F)F)nc(C(=O)Nc2cnoc2)c(O)c1=O (single isomer, unassigned) [Example 21 Isomer 1, 2-(3,3-bis(2-cyanophenyl)-1,1,1-trifluoropropan-2-yl)-5-hydroxy-N-(isoxazol-4-yl)-1-methyl-6-oxo-1,6-dihydropyrimidine-4-carboxamide], the pIC50 (mouse TREX1) was 8.00 to 9.00 and the “hTREX1 vs hTREX2 selectivity” value (human TREX2) was “C (C = >50 fold selective for hTREX1)”.
